The source made the active and inactive calls.
Assays:
[1] = molecular target: T1, Tyrosine-protein phosphatase non-receptor type 7 (Homo sapiens, UniProt P35236); experiment: inhibitors of human HePTP phosphatase, […], biochemical, absorbance, leukemia target (AID 521); type: functional
T1 sequence (P35236 whole entry): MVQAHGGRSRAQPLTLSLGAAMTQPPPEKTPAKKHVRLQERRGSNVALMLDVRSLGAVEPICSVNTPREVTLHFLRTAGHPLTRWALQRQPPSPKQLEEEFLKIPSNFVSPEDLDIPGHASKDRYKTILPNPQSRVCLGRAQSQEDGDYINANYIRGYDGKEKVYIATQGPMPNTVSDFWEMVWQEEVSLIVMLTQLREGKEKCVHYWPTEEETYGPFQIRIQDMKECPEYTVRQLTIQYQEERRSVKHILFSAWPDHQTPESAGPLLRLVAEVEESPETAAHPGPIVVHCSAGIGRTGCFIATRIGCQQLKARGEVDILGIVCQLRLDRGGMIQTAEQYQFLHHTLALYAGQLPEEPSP

[2] = molecular target: Bcl-2-like protein 10 (Homo sapiens, UniProt Q9HD36); experiment: displacers of TR3 peptide from Bcl-B, primary screen, selectivity assay for Bfl-1 inhibitor project, biochemical, fluorescence polarization, FITC-TR3 peptide (AID 748);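 also: fluorescence polarization from a fluorescein-labelled TR3 peptide binding purified Bcl-B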
Sequence of Bcl-2-like protein 10 (Q9HD36 whole entry): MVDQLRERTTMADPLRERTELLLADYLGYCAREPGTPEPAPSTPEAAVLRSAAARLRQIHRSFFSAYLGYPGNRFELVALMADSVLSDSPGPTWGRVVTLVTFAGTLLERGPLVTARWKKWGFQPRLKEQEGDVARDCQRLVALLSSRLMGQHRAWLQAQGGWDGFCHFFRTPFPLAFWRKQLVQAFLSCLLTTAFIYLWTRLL

[3] = molecular target: T2, Estrogen receptor (Homo sapiens, UniProt P03372);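 also: potency for inhibiting coactivator peptide recruitment to the receptor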
T2 sequence (P03372 whole entry): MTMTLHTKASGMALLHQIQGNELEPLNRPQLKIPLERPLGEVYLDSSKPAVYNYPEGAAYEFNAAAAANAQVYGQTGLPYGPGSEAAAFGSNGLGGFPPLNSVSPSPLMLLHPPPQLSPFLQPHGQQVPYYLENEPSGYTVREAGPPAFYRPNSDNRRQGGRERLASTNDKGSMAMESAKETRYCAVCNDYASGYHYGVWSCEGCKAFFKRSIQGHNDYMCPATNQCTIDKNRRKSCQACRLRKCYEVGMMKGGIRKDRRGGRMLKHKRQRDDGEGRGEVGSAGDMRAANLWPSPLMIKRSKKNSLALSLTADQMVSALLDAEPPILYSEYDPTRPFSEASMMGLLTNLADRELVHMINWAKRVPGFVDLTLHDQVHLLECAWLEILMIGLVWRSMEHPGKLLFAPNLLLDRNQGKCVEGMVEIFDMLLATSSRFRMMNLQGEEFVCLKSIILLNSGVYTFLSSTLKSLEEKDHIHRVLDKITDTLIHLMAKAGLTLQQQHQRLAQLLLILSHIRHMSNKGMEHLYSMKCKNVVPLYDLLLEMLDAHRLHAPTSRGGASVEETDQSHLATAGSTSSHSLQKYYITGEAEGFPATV

[4] = molecular target: T3, Estrogen receptor beta (Homo sapiens, UniProt Q92731);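 also: recombinant ER-beta bound to coactivator SRC1 peptide in presence of estradiol agonist; inhibitors block coactivator peptide binding and lower the FRET signal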
T3 sequence (Q92731 whole entry): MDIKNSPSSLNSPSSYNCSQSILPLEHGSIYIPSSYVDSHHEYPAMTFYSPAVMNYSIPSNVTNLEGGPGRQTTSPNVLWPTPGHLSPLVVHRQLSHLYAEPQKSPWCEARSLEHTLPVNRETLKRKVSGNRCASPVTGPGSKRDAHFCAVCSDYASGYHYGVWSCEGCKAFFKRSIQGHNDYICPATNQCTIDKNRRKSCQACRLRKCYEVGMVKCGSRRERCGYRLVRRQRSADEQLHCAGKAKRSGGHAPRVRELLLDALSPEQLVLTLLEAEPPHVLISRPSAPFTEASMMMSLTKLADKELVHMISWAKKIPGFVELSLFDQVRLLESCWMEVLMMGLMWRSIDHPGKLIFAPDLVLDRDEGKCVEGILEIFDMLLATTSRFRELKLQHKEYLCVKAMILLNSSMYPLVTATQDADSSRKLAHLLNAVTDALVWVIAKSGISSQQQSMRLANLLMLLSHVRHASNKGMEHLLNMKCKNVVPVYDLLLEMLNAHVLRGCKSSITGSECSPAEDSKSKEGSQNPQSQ

[5] = molecular target: T3, Estrogen receptor beta; experiment: ERβ–SRC-3 coactivator interaction inhibitors, confirmation, orthogonal assay, biochemical, ELISA, streptavidin-HRP readout (AID 1060)
[6] = molecular target: DNA (cytosine-5)-methyltransferase 1 (Homo sapiens, UniProt P26358); experiment: DNMT1 methyltransferase inhibitors, confirmation, biochemical, fluorescent molecular beacon (AID 602386); type: functional
Sequence of DNA (cytosine-5)-methyltransferase 1 (P26358 whole entry): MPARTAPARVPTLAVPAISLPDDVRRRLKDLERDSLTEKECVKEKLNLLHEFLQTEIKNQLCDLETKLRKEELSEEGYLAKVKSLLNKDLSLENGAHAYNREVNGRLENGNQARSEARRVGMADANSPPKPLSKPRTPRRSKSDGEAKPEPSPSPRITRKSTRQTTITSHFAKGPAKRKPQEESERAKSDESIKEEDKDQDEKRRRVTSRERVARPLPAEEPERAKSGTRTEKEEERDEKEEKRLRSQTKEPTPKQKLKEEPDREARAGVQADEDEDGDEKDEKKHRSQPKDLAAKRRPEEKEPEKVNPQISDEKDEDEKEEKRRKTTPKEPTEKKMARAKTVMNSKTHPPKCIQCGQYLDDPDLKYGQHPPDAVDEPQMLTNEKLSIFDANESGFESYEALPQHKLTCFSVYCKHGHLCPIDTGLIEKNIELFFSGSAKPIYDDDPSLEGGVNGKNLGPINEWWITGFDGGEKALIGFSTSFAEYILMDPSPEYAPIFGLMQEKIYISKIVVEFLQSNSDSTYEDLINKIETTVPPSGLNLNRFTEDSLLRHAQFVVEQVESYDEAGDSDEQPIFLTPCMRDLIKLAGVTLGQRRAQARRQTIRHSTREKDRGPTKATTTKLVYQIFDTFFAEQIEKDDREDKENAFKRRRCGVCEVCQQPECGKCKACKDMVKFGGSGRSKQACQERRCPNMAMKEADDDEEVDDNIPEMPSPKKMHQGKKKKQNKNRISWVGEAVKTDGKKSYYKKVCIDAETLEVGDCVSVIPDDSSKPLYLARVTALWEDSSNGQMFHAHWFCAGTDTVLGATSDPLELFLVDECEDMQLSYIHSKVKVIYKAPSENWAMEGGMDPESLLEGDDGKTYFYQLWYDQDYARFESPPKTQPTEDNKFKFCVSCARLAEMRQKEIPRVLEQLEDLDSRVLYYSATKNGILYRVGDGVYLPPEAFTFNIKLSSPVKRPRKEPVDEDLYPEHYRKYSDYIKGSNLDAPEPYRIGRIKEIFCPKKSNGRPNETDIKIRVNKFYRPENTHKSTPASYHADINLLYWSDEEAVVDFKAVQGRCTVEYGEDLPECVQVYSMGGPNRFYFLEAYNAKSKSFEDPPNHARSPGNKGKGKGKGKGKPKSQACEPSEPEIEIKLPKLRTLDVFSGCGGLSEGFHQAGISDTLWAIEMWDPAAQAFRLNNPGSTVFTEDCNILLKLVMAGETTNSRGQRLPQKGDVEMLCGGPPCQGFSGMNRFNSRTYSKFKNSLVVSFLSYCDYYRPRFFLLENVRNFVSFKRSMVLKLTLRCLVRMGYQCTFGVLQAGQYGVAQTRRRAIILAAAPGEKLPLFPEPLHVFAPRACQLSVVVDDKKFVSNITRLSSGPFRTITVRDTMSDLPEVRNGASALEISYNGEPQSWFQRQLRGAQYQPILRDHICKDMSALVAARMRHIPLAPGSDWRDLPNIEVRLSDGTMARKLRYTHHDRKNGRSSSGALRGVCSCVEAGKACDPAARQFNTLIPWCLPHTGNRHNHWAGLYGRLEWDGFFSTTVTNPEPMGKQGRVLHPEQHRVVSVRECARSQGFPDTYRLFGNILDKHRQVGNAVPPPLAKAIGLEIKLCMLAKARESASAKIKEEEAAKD

[7] = molecular target: T4, Tyrosine-protein phosphatase non-receptor type 11 (Homo sapiens, UniProt Q06124); experiment: SHP2 phosphatase inhibition, dose response, selectivity assay for STEP inhibitor project, biochemical (AID 602367); type: functional; conditions: read-out: IC50_Mean
T4 sequence (Q06124 whole entry): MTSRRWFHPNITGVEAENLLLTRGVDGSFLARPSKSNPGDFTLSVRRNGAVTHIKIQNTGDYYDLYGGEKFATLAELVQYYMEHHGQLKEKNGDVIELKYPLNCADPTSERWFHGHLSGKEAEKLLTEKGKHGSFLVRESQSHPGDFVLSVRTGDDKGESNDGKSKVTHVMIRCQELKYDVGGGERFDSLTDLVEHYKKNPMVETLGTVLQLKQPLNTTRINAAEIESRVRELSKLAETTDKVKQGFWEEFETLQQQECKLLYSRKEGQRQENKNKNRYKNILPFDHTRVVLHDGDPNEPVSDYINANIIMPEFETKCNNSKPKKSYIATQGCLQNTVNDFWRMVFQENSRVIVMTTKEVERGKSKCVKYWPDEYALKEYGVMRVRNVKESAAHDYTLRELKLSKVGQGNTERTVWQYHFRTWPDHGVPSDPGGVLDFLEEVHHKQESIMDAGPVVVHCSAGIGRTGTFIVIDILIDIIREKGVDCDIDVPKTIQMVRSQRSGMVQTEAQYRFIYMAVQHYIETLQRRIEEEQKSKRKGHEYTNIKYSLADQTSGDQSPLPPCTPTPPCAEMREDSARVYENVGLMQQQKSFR

[8] = molecular target: T5, Tyrosine-protein phosphatase non-receptor type 5 (Homo sapiens, UniProt P54829); experiment: STEP phosphatase inhibitors, confirmation, biochemical, fluorescence intensity, uHTS hits (AID 602372); type: functional; conditions: read-out: IC50_Mean
T5 sequence (P54829 whole entry): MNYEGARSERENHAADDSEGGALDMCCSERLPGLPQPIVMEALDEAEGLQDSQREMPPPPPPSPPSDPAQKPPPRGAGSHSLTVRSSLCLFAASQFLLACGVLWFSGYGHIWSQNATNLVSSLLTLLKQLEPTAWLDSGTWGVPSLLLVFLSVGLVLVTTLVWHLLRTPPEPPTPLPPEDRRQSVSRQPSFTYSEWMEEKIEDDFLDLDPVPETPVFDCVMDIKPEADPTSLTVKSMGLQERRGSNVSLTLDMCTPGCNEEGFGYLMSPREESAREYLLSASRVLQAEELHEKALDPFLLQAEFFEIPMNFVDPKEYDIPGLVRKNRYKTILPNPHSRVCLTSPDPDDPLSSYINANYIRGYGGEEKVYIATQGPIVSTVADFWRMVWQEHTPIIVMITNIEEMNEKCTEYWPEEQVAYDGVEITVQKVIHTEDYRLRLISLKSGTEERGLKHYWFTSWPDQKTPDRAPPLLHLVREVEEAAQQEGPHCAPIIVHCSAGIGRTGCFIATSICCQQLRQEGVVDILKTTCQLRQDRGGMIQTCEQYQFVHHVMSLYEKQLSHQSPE

[9] = molecular target: Dual specificity protein phosphatase 3 (Homo sapiens, UniProt P51452); experiment: VHR phosphatase inhibition, dose response, selectivity assay for STEP inhibitor project, biochemical (AID 602374); type: functional; conditions: read-out: IC50_Mean
Sequence of Dual specificity protein phosphatase 3 (P51452 whole entry): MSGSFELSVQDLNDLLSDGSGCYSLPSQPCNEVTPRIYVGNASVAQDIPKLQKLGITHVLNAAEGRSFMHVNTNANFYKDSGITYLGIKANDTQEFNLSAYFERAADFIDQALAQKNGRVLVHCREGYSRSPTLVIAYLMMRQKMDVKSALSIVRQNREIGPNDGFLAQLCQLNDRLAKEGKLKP

[10] = molecular target: T6, Tyrosine-protein phosphatase non-receptor type 22 (Homo sapiens, UniProt Q9Y2R2); experiment: PTPN22 phosphatase inhibition, dose response, selectivity assay for STEP inhibitor project, biochemical (AID 624241); type: functional
T6 sequence (Q9Y2R2 whole entry): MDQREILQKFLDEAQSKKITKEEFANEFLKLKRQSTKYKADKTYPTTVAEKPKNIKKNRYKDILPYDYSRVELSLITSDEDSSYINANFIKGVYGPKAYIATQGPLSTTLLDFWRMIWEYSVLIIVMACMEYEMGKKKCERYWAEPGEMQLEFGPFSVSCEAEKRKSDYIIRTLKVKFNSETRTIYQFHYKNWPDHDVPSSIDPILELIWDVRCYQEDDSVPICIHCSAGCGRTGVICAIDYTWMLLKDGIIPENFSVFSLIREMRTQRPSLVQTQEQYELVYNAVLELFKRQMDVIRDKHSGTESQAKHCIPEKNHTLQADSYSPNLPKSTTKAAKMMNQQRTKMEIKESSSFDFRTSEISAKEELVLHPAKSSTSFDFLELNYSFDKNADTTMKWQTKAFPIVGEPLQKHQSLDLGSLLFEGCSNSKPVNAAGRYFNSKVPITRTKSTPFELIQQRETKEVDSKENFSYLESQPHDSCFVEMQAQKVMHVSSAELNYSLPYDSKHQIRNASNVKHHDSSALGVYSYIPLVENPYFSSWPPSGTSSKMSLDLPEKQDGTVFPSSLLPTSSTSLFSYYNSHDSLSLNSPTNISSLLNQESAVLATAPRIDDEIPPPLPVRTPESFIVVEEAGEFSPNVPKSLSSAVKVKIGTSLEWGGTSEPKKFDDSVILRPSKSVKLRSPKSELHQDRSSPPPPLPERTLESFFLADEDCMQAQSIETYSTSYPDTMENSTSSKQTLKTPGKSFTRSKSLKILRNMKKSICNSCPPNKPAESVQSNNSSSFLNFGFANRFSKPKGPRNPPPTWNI

[11] = inhibitors of Vif binding to APOBEC3G peptide, primary screen, biochemical, TR-FRET, GST-Vif 1-94, biotin-A3G peptide, dose response retest (AID 1117319); type: functional;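 also: TR-FRET signal of purified GST-Vif binding a biotinylated A3G peptide; inhibitors lower the FRET signal by blocking Vif and A3G binding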
[12] = molecular target: ADP-ribosylation factor GTPase-activating protein 1 (Rattus norvegicus, UniProt Q62848); experiment: Fluorescence polarization-based biochemical high throughput dose response screening assay to identify inhibitors of ADP-ribosylation factor GTPase activating protein 1 (ARFGAP1).; type: functional
Sequence of ADP-ribosylation factor GTPase-activating protein 1 (Q62848 whole entry, the tested form may be a part): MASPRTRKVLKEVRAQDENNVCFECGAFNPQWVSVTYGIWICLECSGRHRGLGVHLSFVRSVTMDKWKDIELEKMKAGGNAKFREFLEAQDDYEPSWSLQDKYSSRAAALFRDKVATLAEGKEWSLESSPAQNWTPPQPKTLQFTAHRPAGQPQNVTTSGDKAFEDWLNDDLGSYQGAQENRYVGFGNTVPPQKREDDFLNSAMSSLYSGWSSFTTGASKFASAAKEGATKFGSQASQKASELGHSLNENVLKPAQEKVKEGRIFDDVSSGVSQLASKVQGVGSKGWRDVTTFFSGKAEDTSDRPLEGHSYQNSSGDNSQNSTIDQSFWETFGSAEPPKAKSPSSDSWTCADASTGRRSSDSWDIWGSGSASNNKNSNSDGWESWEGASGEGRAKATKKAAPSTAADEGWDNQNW

[13] = molecular target: Arf-GAP with SH3 domain, ANK repeat and PH domain-containing protein 1 (Homo sapiens, UniProt Q9ULH1); type: functional;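 also: biochemical fluorescence polarization dose–response screen measuring inhibition of ASAP1; ASAP1 GAP domain stimulating GTP hydrolysis by truncated human ARF1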
Sequence of Arf-GAP with SH3 domain, ANK repeat and PH domain-containing protein 1 (Q9ULH1 whole entry, the tested form may be a part): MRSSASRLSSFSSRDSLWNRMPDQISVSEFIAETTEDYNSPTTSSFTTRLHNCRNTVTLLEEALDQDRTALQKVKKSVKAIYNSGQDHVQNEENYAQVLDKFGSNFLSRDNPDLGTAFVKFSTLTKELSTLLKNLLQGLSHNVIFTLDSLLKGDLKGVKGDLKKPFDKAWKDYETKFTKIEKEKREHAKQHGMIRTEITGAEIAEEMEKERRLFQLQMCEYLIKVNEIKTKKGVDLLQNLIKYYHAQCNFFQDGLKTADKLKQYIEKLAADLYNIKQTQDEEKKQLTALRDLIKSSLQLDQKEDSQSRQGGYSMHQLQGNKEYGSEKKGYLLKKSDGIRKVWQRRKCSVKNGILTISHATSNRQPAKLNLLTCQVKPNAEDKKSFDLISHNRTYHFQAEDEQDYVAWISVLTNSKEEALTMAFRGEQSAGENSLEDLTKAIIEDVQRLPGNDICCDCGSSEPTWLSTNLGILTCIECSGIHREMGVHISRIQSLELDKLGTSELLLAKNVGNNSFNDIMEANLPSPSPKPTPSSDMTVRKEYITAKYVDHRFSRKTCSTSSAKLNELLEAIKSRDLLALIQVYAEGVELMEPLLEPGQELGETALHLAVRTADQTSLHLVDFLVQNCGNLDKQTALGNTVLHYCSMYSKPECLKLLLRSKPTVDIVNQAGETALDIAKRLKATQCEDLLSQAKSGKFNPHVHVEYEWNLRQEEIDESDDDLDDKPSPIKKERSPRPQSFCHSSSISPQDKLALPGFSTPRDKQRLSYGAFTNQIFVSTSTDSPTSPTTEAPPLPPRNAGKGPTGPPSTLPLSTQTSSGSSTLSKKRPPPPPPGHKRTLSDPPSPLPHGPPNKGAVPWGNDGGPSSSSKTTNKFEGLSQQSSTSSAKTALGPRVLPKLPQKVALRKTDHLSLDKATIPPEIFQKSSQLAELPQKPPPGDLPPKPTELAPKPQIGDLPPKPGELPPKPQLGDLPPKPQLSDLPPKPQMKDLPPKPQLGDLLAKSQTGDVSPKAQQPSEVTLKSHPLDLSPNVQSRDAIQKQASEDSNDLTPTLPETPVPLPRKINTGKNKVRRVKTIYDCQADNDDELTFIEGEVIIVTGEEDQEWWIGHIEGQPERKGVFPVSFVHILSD

[14] = molecular target: Broad substrate specificity ATP-binding cassette transporter ABCG2 (Homo sapiens, UniProt Q9UNQ0); experiment: ABCG2 efflux pump inhibitors, dose response, Ig-MXP3 cells, flow cytometry (AID 1690); type: functional
Sequence of Broad substrate specificity ATP-binding cassette transporter ABCG2 (Q9UNQ0 whole entry): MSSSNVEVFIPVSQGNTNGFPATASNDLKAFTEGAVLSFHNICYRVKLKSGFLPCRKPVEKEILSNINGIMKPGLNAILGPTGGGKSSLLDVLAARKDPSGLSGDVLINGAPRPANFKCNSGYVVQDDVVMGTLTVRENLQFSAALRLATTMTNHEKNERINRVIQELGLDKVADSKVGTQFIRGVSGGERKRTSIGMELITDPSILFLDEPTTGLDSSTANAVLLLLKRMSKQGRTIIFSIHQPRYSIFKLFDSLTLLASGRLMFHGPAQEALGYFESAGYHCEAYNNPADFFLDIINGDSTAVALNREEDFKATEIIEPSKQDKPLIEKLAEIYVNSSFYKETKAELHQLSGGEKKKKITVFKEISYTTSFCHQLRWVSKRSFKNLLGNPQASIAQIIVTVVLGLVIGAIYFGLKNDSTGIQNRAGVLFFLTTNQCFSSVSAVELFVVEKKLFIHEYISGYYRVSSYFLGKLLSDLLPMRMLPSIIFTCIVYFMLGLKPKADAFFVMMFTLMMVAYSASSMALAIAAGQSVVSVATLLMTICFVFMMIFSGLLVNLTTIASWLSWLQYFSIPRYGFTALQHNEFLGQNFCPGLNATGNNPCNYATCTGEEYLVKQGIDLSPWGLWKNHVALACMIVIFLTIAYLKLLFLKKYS

With `COc1ccc(OC)c(N2C(=O)[C@@H]3C(c4ccccc4Cl)=NO[C@@H]3C2=O)c1` the IC50 [1] was 8.25 µM (active), the IC50 [2] was 14.9 µM (active) and the IC50 [3] was 9.78 µM (active). For the same molecule, the IC50 [4] was 2.49 µM (active), the IC50 [5] was > 50 µM (not active) and the IC50 [6] was 4.35 µM (active). The IC50 [7] was 469 nM (active), the IC50 [8] was 24.4 µM (inactive) and the IC50 [9] was 833 nM (active). The IC50 [10] was > 100 µM (inactive) and the IC50 [11] was > 100 µM (active).

In the case of `Cc1ccc2nc(SCC(=O)N3CC(C)OC(C)C3)nc(=O)n2c1` (centres undefined), the IC50 [12] was 10.7 µM (inactive) and the IC50 [13] was 20.9 µM (inactive).

With `COc1cc(C(=O)Nc2ccc(S(=O)(=O)NC(C)C)cc2)cc(OC)c1OC` the EC50 [14] was 1.32 µM (inactive).

Reference: ChEMBL document CHEMBL1201862, “PubChem BioAssay data set” (2004)
